Test results: patent publication US20260070917A1, “CYCLIN DEPENDENT KINASE DEGRADERS AND METHODS OF USE THEREOF” (Differentiated Therapeutics Inc, priority 2023, published 2026)

What was measured:
Type in all cases: cell-based
CDK9 = target: T1, CDK9 (Homo sapiens, UniProt P50750); assay: HiBit Assay Protocol for CDK9 (HIBIT protein quantification, degradation); conditions: 6 h, HEK293-CDK9-Hibit cells, compound treatment for 6 hours; read-out: CDK9 HIBIT Protein Quantification Maximum
T1 construct: host or cells: HEK293-CDK9-Hibit
T1 sequence (P50750 whole entry): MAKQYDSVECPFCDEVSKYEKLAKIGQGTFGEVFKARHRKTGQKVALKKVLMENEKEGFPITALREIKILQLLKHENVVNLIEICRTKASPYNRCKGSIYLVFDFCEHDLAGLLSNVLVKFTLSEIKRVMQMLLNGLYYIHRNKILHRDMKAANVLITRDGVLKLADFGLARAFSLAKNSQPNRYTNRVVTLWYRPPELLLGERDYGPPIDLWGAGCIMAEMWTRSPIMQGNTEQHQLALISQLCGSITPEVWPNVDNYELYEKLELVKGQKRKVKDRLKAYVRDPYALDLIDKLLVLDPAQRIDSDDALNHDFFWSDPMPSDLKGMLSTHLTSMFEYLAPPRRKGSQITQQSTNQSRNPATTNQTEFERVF
Summary of the method: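 Degradation read-out: luminescence after lytic HiBiT/LgBiT detection in HEK293-CDK9-HiBiT cells exposed 6 h to 10-point, 3-fold compound dilutions. Signal scaled between 0.1% DMSO-treated cells and medium alone; DC50 fitted from the curve.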

CCNE1 = target: T2, CCNE1 (Homo sapiens, UniProt P24864); assay: HiBit Assay Protocol for CCNE1 (HIBIT protein quantification, degradation); conditions: HEK293-CCNE1-Hibit cells, compound treatment for 6 hours
T2 construct: host or cells: HEK293-CCNE1-Hibit
T2 sequence (P24864 whole entry): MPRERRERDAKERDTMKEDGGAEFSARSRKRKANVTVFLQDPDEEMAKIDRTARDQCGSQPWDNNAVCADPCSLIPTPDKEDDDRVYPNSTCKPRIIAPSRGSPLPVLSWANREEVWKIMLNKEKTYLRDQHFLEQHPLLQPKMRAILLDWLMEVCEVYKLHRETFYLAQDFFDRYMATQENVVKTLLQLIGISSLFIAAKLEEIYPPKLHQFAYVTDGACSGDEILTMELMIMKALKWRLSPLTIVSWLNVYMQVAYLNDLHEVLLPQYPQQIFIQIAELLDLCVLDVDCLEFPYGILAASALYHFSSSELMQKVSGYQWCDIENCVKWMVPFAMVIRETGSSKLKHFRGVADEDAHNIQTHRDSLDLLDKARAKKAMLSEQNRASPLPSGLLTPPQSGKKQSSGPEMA
Summary of the method: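 Degradation readout: lytic Nano-Glo HiBiT luminescence after 6 h exposure of HEK293-CCNE1-HiBiT cells to 10-point, 3-fold serial dilutions. Signal was scaled between medium-only and DMSO-treated wells, and DC50 came from curve fits.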

CDK2 = target: T3, CDK2 (Homo sapiens, UniProt P24941); assay: HiBit Assay Protocol for CDK2 (HIBIT protein quantification, degradation); conditions: HEK293-CDK2-Hibit cells, compound treatment for 6 hours; for DC50: ABS DC50
T3 construct: host or cells: HEK293-CDK2-Hibit
Summary of the method: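 DC50 comes from a fitted curve of remaining CDK2-HiBiT luminescence, referenced to DMSO-treated cells and medium-only wells. HEK293-CDK2-HiBiT cells, plated the previous night, received compounds in a 10-point, 3-fold series for 6 h before lysis with LgBiT-containing Nano-Glo HiBiT reagent.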

Cn1c(=O)n(C2CCC(=O)NC2=O)c2ccc(N3CCN(Cc4cccc(S(=O)(=O)N5CCC(Nc6ncc7c(n6)N([C@@H]6CCC[C@@H](O)C6)C(=O)C76CC6)CC5)c4)CC3)cc21 (stereo partly drawn) [Compound 179, 3-[5-(4-{[3-(4-{7′-[(1R,3R)-3-Hydroxycyclohexyl]-6′-oxospiro[cyclopropane-1,5′-pyrrolo[2,3-d]pyrimidin]-2′-ylamino}piperidin-1-ylsulfonyl)phenyl]methyl}piperazin-1-yl)-3-methyl-2-oxo-1,3-benzodiazol-1-yl]piperidine-2,6-dione]
Dmax (CDK9): 15% | CCNE1 HIBIT Protein Quantification Maximum (CCNE1): 20% | CDK2 HIBIT Protein Quantification Maximum (CDK2): 78% | DC50 (CDK2): 7.82 nM

Cn1nc(N2CCC(=O)NC2=O)c2ccc(C3CCN(Cc4cccc(S(=O)(=O)N5CCC(Nc6ncc7c(n6)N([C@@H]6CCC[C@@H](O)C6)C(=O)C76CC6)CC5)c4)CC3F)cc21 (stereo partly drawn) [Compound 180, 1-[6-(3-Fluoro-1-{[3-(4-{7′-[(1R,3R)-3-hydroxycyclohexyl]-6′-oxospiro[cyclopropane-1,5′-pyrrolo[2,3-d]pyrimidin]-2′-ylamino}piperidin-1-ylsulfonyl)phenyl]methyl}piperidin-4-yl)-1-methylindazol-3-yl]-1,3-diazinane-2,4-dione]
Dmax (CDK9): 34% | CCNE1 HIBIT Protein Quantification Maximum (CCNE1): 48% | CDK2 HIBIT Protein Quantification Maximum (CDK2): 85% | DC50 (CDK2): 7.18 nM

Cn1c(=O)n(C2CCC(=O)NC2=O)c2cccc(N3CCN(Cc4cccc(S(=O)(=O)N5CCC(Nc6ncc7c(n6)N([C@@H]6CCC[C@@H](O)C6)C(=O)C76CC6)CC5)c4)CC3)c21 (stereo partly drawn) [Compound 181, 3-[4-(4-{[3-(4-{7′-[(1R,3R)-3-hydroxycyclohexyl]-6′-oxospiro[cyclopropane-1,5′-pyrrolo[2,3-d]pyrimidin]-2′-ylamino}piperidin-1-ylsulfonyl)phenyl]methyl}piperazin-1-yl)-3-methyl-2-oxo-1,3-benzodiazol-1-yl]piperidine-2,6-dione]
Dmax (CDK9): 11% | CCNE1 HIBIT Protein Quantification Maximum (CCNE1): 38% | CDK2 HIBIT Protein Quantification Maximum (CDK2): 77% | DC50 (CDK2): 6.02 nM

Cn1nc(N2CCC(=O)NC2=O)c2ccc(C3CCN(Cc4cccc(S(=O)(=O)N5CCC(Nc6ncc7c(n6)N([C@@H]6CCC[C@@H](O)C6)C(=O)C76CC6)CC5)c4)C(C)(C)C3)cc21 (stereo partly drawn) [Compound 183, 1-[6-(1-{[3-(4-{7′-[(1R,3R)-3-Hydroxycyclohexyl]-6′-oxospiro[cyclopropane-1,5′-pyrrolo[2,3-d]pyrimidin]-2′-ylamino}piperidin-1-ylsulfonyl)phenyl]methyl}-2,2-dimethylpiperidin-4-yl)-1-methylindazol-3-yl]-1,3-diazinane-2,4-dione]
Dmax (CDK9): 24% | CCNE1 HIBIT Protein Quantification Maximum (CCNE1): 43% | CDK2 HIBIT Protein Quantification Maximum (CDK2): 67% | DC50 (CDK2): 2.84 nM

Cn1nc(N2CCC(=O)NC2=O)c2ccc(N3CCN(Cc4cccc(S(=O)(=O)N5CCC(Nc6ncc7c(n6)N([C@@H]6CCC[C@@H](O)C6)C(=O)C76CC6)CC5)c4)CC3)cc21 [Compound 184]
Dmax (CDK9): 22% | CCNE1 HIBIT Protein Quantification Maximum (CCNE1): 43% | CDK2 HIBIT Protein Quantification Maximum (CDK2): 90% | DC50 (CDK2): 5.47 nM

CC1CN(Cc2cccc(S(=O)(=O)N3CCC(Nc4ncc5c(n4)N([C@@H]4CCC[C@@H](O)C4)C(=O)C54CC4)CC3)c2)CCN1c1ccc2c(N3CCC(=O)NC3=O)nn(C)c2c1 (some centres unmarked) [Compound 185]
Dmax (CDK9): 5% | CCNE1 HIBIT Protein Quantification Maximum (CCNE1): 36% | CDK2 HIBIT Protein Quantification Maximum (CDK2): 84% | DC50 (CDK2): 6.77 nM

Cn1nc(N2CCC(=O)NC2=O)c2ccc(C3CCN(CC4CCCN(S(=O)(=O)N5CCC(Nc6ncc7c(n6)N([C@@H]6CCC[C@@H](O)C6)C(=O)C76CC6)CC5)C4)CC3)cc21 (stereo partly drawn) [Compound 186, 1-[6-(1-{[1-(4-{7′-[(1R,3R)-3-Hydroxycyclohexyl]-6′-oxospiro[cyclopropane-1,5′-pyrrolo[2,3-d]pyrimidin]-2′-ylamino}piperidin-1-ylsulfonyl)piperidin-3-yl]methyl}piperidin-4-yl)-1-methylindazol-3-yl]-1,3-diazinane-2,4-dione]
Dmax (CDK9): 27% | CCNE1 HIBIT Protein Quantification Maximum (CCNE1): 43% | CDK2 HIBIT Protein Quantification Maximum (CDK2): 62% | DC50 (CDK2): 2.82 nM

CC(c1cccc(S(=O)(=O)N2CC[C@H](Nc3ncc4c(n3)N([C@@H]3CCC[C@@H](O)C3)C(=O)C43CC3)[C@H](F)C2)c1)N1CCN(c2ccc3c(N4CCC(=O)NC4=O)nn(C)c3c2)CC1 (some centres unmarked) [Compound 187]
Dmax (CDK9): 11% | CCNE1 HIBIT Protein Quantification Maximum (CCNE1): 45% | CDK2 HIBIT Protein Quantification Maximum (CDK2): 91% | DC50 (CDK2): 4.32 nM

CC(c1cccc(S(=O)(=O)N2CC[C@H](Nc3ncc4c(n3)N([C@@H]3CCC[C@@H](O)C3)C(=O)C43CC3)[C@H](F)C2)c1)N1CCC(c2ccc3c(N4CCC(=O)NC4=O)nn(C)c3c2)CC1 (some centres unmarked) [Compound 188]
Dmax (CDK9): 24% | CCNE1 HIBIT Protein Quantification Maximum (CCNE1): 45% | CDK2 HIBIT Protein Quantification Maximum (CDK2): 85% | DC50 (CDK2): 1.92 nM

C[C@@H]1CN(c2ccc3c(N4CCC(=O)NC4=O)nn(C)c3c2)CCN1[C@H](C)c1cccc(S(=O)(=O)N2CC[C@H](Nc3ncc4c(n3)N([C@@H]3CCC[C@@H](O)C3)C(=O)C43CC3)[C@H](F)C2)c1 [Compound 191, 1-(6-((R)-4-((R)-1-(3-(((3R,4S)-3-Fluoro-4-((7′-((1R,3R)-3-hydroxycyclohexyl)-6′-oxo-6′,7′-dihydrospiro[cyclopropane-1,5′-pyrrolo[2,3-d]pyrimidin]-2′-yl)amino)piperidin-1-yl)sulfonyl)phenyl)ethyl)-3-methylpiperazin-1-yl)-1-methyl-1H-indazol-3-yl)dihydropyrimidine-2,4(1H,3H)-dione]
Dmax (CDK9): 9% | CCNE1 HIBIT Protein Quantification Maximum (CCNE1): 48% | CDK2 HIBIT Protein Quantification Maximum (CDK2): 90% | DC50 (CDK2): 21.9 nM

C[C@@H]1CN(c2ccc3c(N4CCC(=O)NC4=O)nn(C)c3c2)CCN1[C@@H](C)c1cccc(S(=O)(=O)N2CC[C@H](Nc3ncc4c(n3)N([C@@H]3CCC[C@@H](O)C3)C(=O)C43CC3)[C@H](F)C2)c1 [Compound 192, 1-(6-((R)-4-((S)-1-(3-(((3R,4S)-3-Fluoro-4-((7′-((1R,3R)-3-hydroxycyclohexyl)-6′-oxo-6′,7′-dihydrospiro[cyclopropane-1,5′-pyrrolo[2,3-d]pyrimidin]-2′-yl)amino)piperidin-1-yl)sulfonyl)phenyl)ethyl)-3-methylpiperazin-1-yl)-1-methyl-1H-indazol-3-yl)dihydropyrimidine-2,4(1H,3H)-dione]
Dmax (CDK9): 16% | CCNE1 HIBIT Protein Quantification Maximum (CCNE1): 45% | CDK2 HIBIT Protein Quantification Maximum (CDK2): 92% | DC50 (CDK2): 4.67 nM

CC(c1cccc(S(=O)(=O)N2CC[C@H](Nc3ncc4c(n3)N([C@@H]3CCC[C@@H](O)C3)C(=O)C43CC3)[C@H](F)C2)c1)N1CCN(c2ccc3c(N4CCC(=O)NC4=O)nn(C)c3c2)C[C@H]1C (stereo partly drawn) [Compound 195, 1-(6-((3R)-4-(1-(3-(((3R,4S)-3-Fluoro-4-((7′-((1R,3R)-3-hydroxycyclohexyl)-6′-oxo-6′,7′-dihydrospiro[cyclopropane-1,5′-pyrrolo[2,3-d]pyrimidin]-2′-yl)amino)piperidin-1-yl)sulfonyl)phenyl)ethyl)-3-methylpiperazin-1-yl)-1-methyl-1H-indazol-3-yl)dihydropyrimidine-2,4(1H,3H)-dione]
Dmax (CDK9): 21% | CCNE1 HIBIT Protein Quantification Maximum (CCNE1): 41% | CDK2 HIBIT Protein Quantification Maximum (CDK2): 92% | DC50 (CDK2): 5.54 nM

C[C@H](c1cccc(S(=O)(=O)N2CC[C@H](Nc3ncc4c(n3)N([C@@H]3CCC[C@@H](O)C3)C(=O)C43CC3)[C@H](F)C2)c1)N1CCN(c2ccc3c(N4CCC(=O)NC4=O)nn(C)c3c2)CC1 [Compound 196]
Dmax (CDK9): 14% | CCNE1 HIBIT Protein Quantification Maximum (CCNE1): 36% | CDK2 HIBIT Protein Quantification Maximum (CDK2): 93% | DC50 (CDK2): 12 nM

C[C@@H](c1cccc(S(=O)(=O)N2CC[C@H](Nc3ncc4c(n3)N([C@@H]3CCC[C@@H](O)C3)C(=O)C43CC3)[C@H](F)C2)c1)N1CCN(c2ccc3c(N4CCC(=O)NC4=O)nn(C)c3c2)CC1 [Compound 197]
Dmax (CDK9): 8% | CCNE1 HIBIT Protein Quantification Maximum (CCNE1): 33% | CDK2 HIBIT Protein Quantification Maximum (CDK2): 91% | DC50 (CDK2): 10.5 nM

C[C@H](c1cccc(S(=O)(=O)N2CC[C@H](Nc3ncc4c(n3)N([C@@H]3CCC[C@@H](O)C3)C(=O)C43CC3)[C@H](F)C2)c1)N1CCC(c2ccc3c(N4CCC(=O)NC4=O)nn(C)c3c2)CC1 [Compound 198]
Dmax (CDK9): 2% | CCNE1 HIBIT Protein Quantification Maximum (CCNE1): 40% | CDK2 HIBIT Protein Quantification Maximum (CDK2): 80% | DC50 (CDK2): 2.48 nM

CC(C)[C@@H]1CN([C@H](C)c2cccc(S(=O)(=O)N3CC[C@H](Nc4ncc5c(n4)N([C@@H]4CCC[C@@H](O)C4)C(=O)C54CC4)[C@H](F)C3)c2)CCN1c1ccc2c(N3CCC(=O)NC3=O)nn(C)c2c1 [Compound 204]
Dmax (CDK9): 15% | CCNE1 HIBIT Protein Quantification Maximum (CCNE1): 33% | CDK2 HIBIT Protein Quantification Maximum (CDK2): 85% | DC50 (CDK2): 10.4 nM

CC(C)[C@@H]1CN([C@@H](C)c2cccc(S(=O)(=O)N3CC[C@H](Nc4ncc5c(n4)N([C@@H]4CCC[C@@H](O)C4)C(=O)C54CC4)[C@H](F)C3)c2)CCN1c1ccc2c(N3CCC(=O)NC3=O)nn(C)c2c1 [Compound 205]
Dmax (CDK9): 14% | CCNE1 HIBIT Protein Quantification Maximum (CCNE1): 38% | CDK2 HIBIT Protein Quantification Maximum (CDK2): 88% | DC50 (CDK2): 13.1 nM
